Measured values published in US5985835A, “Desmopressin for nocturia, incontinence and enuresis” (priority 1997, dated 1999).
Like-named read-outs stand apart in the source and are kept apart here.

Experiments:
Type in all cases: in vivo, human
[1] = test system: elderly persons with increased nocturnal diuresis and decreased ADH secretion; details: for Diuresis-day: 08-20 h; for Diuresis-night: 20-08 h
Procedure: They had no cardiac or renal disease or diabetes nor were they receiving diuretics. […] Intravenous specimens for the determination of ADH and NAP were frozen at […]. Plasma ADH was measured as arginine vasopressin by radioimmunoassay after extraction with ethanol. The reference range for plasma ADH was 1-5 pmol 1^-1 with an interassay variability of 15.1% at 0.9 pmol 1^-1 and 6.3% at 1.25 pmol 1^-1. Their nocturnal diuresis had decreased during desmopressin treatment on two successive days. After an evaluation of this study the participants were invited to take part in a two-month treatment with desmopressin ([…]®) 40 μg, given as an intranasal aerosol at 20.00 h. […] No changes in their way of life and no restriction in fluid intake was prescribed. The study was carried out after one and two months of treatment and one month after the treatment. […] Mean values of diuresis and micturitions for the 12-hour periods were calculated (Table 2). At these times also a questionnaire with 12 questions about general wellbeing and sleep was filled in (Table 1). The statistical method used a mean value ± standard deviation. The paired numerical data were analyzed with the 2-sided Student's t-test. Non-numerical data were analyzed with the x'-test.

[2] = test system: patients 60-74 years of age with increased nocturnal frequency due to nocturnal polyuria
Procedure: This example provides efficacy and safety data for oral desmopressin in the treatment of increased frequency due to nocturnal polyuria in the elderly. The study started with a run-in week to establish baseline. An open dose titration, one week each of 0.1 mg, 0.2 mg and 0.4 mg, was performed and followed by a wash-out of 1-2 weeks. Then followed the double-blind, placebo controlled, cross-over part of the study using the dose selected in the dose titration. Placebo and active treatment were given for 14 days each in a randomized order. […] The diagnosis and main criteria for inclusion was a healthy adult patient between 60-74 years of age suffering from increased nocturnal frequency (≥2 nocturnal voids) and a nocturnal urinary output ≥0.9 ml/min. The desmopressin used for the study was […]®, 0.1 mg and 0.2 mg tablets. […] Study duration, including run-in and wash-out periods, was 9 weeks. The criteria for evaluation were: 1. Efficacy: the change in nocturnal diuresis (ml/min), nocturnal micturition episodes and 24-hour diuresis. 2. Safety: changes from baseline in blood pressure, S-sodium, ankle circumference and bodyweight. Incidence of adverse events. The efficacy endpoints during the double blind part of the study were subjected to statistical analysis with an ANOVA model. Sequence effect was tested with the within mean square in the ANOVA. The residuals obtained were plotted against predicted values, normal plots were also produced. The plots were examined for relationship between variance and mean non-normality. Shapiro-Wilks test was performed to assist in these assessments. The difference in effect is presented in 95% confidence intervals for least square means, placebo versus desmopressin. All tests performed used a significance level of α=5%.

[3] = test system: elderly persons with increased nocturnal diuresis; assay: Pilot study of desmopressin treatment during 48 hours in elderly persons with increased nocturnal diuresis; details: desmopressin treatment on two successive days
Procedure: ADH levels were studied in a group of elderly persons who had increased nocturnal diuresis. The levels generally were very low and a pilot study was done to determine the effect of desmopressin treatment during a period of 48 hours. Their nocturnal diuresis had decreased during desmopressin treatment on two successive days. After an evaluation of this study the participants were invited to take part in a two-month treatment with desmopressin ([…]®) 40 μg, given as an intranasal aerosol at 20.00 h. The tests consisted of 7 men (aged 72±4 years) and 14 women (aged 73±6 years). No changes in their way of life and no restriction in fluid intake was prescribed. The study was carried out after one and two months of treatment and one month after the treatment.

[4] = men, 1 month of 40 μg intranasal
[5] = men, 2 months of 40 μg intranasal
[6] = men, 3 months (one month after treatment)
[7] = women, 1 month of 40 μg intranasal
[8] = women, 2 months of 40 μg intranasal
[9] = women, 3 months (one month after treatment)
[10] = oral tablets, titrated dose 0.1-0.4 mg, 14 days, statistically significant

## NC(=O)CC[C@@H]1NC(=O)[C@H](Cc2ccccc2)NC(=O)[C@H](Cc2ccc(O)cc2)NC(=O)CCSSC[C@@H](C(=O)N2CCC[C@H]2C(=O)N[C@H](CCCN=C(N)N)C(=O)NCC(N)=O)NC(=O)[C@H](CC(N)=O)NC1=O [Desmopressin, 1-deamino-8-D-arginine vasopressin]
[1]; after one month
  Number of women who reduced nocturnal diuresis by less than 400 ml: 9 women
[1]; after two months
  Number of women who reduced nocturnal diuresis by less than 400 ml: 7 women
[1]; during the study
  Total 24-hour diuresis: more or less unchanged
[1]; during the treatment
  Decrease in average diuresis during the night, women versus men: twice as large in women as in men
[1]; during treatment
  Diuresis during the daytime: changed insignificantly
[1]; in vivo
  Body weight: did not change
  Potassium in serum: did not change
  Sodium in serum: did not change
[1]; men, 0 (before treatment)
  Diuresis-day/night: 0.67 ± 0.20
  No. of micturitions - night: 4.3 ± 1.2
  Diuresis-night: 763 ± 42 mL
[1]; men, 0 (before treatment), mean ± SD
  Diuresis-day: 511 ± 85 mL
[1]; men, 1 month
  Diuresis-day Deviation from initial value %: -9%
  Diuresis-day/night: 0.83 ± 0.28
  Diuresis-night Deviation from initial value %: -21%
  No. of micturitions - night: 3.8 ± 1.7
[1]; [4]
  Diuresis-day: 465 ± 72 mL
  Diuresis-night: 603 ± 178 mL
[1]; men, 2 months
  Diuresis-day Deviation from initial value %: 2%
  Diuresis-day/night: 0.91 ± 0.29
  Diuresis-night Deviation from initial value %: -20%
  No. of micturitions - night: 4.5 ± 2.0
[1]; [5]
  Diuresis-day: 524 ± 117 mL
  Diuresis-night: 612 ± 174 mL
[1]; [6]
  Diuresis-day Deviation from initial value %: -14%
  Diuresis-day/night: 0.66 ± 0.26
  Diuresis-night Deviation from initial value %: -6%
  No. of micturitions - night: 4.1 ± 1.6
  Diuresis-day: 441 ± 68 mL
  Diuresis-night: 717 ± 168 mL
[1]; men, after both one and two months
  Reduction of nocturnal diuresis (all the men): less than 400 ml
[1]; men, after one month
  Decrease in nocturnal diuresis from the initial value: 21%
[1]; men, after two months
  Decrease in nocturnal diuresis from the initial value: 20%
[1]; one month after treatment, both men and women
  Daytime diuresis: there remained a reduction
[1]; women versus men
  Number of nocturnal micturitions: women were affected most positively
[1]; women, 0 (before treatment)
  Diuresis-day/night: 0.84 ± 0.40
  Diuresis-day: 699 ± 368 mL
  Diuresis-night: 892 ± 361 mL
[1]; women, 1 month
  Diuresis-day Deviation from initial value %: 6%
  Diuresis-day/night: 1.46 ± 0.87
  Diuresis-night Deviation from initial value %: -36%
[1]; [7]
  Diuresis-day: 746 ± 368 mL
  Diuresis-night: 570 ± 172 mL
[1]; women, 2 months
  Diuresis-day Deviation from initial value %: -4%
  Diuresis-day/night: 1.14 ± 0.36
  Diuresis-night Deviation from initial value %: -34%
[1]; [8]
  Diuresis-day: 673 ± 257 mL
  Diuresis-night: 592 mL
[1]; [9]
  Diuresis-day Deviation from initial value %: -14%
  Diuresis-day/night: 0.89 ± 0.36
  Diuresis-night Deviation from initial value %: -17%
  Diuresis-day: 587 ± 173 mL
  Diuresis-night: 739 ± 260 mL
[1]; women, after one month
  Decrease in nocturnal diuresis from the initial value: 36%
[1]; women, after two months
  Decrease in nocturnal diuresis from the initial value: 34%
[1]; women, one month after the last day of treatment
  Less nocturnal diuresis than initial value: 17%
[2]; in vivo, po
  Tolerability: well tolerated
[2]; oral tablets, titrated dose 0.1-0.4 mg, 14 days
  Duration of sleep between voids compared to placebo: significantly longer
[2]; [10]
  Nocturnal diuresis compared to placebo: lower
  Nocturnal voids compared to placebo: fewer
[2]; oral tablets, elderly population
  Nocturnal symptoms: significantly decreases
[3]
  Nocturnal diuresis: decreased
